Measurements published in ChEMBL document CHEMBL1157311, “Aurilides B and C, cancer cell toxins from a Papua New Guinea collection of the marine cyanobacterium Lyngbya majuscula” (2006).

What was measured:
Format in all cases: functional
[1] = system: U-251; assay: Growth inhibition of human U251 cells
[2] = system: LOX IMVI; assay: Growth inhibition of human LOX IMVI cells
[3] = system: M14; assay: Growth inhibition of human M14 cells
[4] = system: SK-MEL-2; assay: Growth inhibition of human SK-MEL-2 cells
[5] = system: SK-MEL-28; assay: Growth inhibition of human SK-MEL-28 cells
[6] = system: SK-MEL-5; assay: Growth inhibition of human SK-MEL-5 cells
[7] = system: UACC-257; assay: Growth inhibition of human UACC257 cells
[8] = system: UACC-62; assay: Growth inhibition of human UACC62 cells
[9] = system: IGROV-1; assay: Growth inhibition of human IGROV1 cells
[10] = Growth inhibition of human OVACR3 cells
[11] = Growth inhibition of human OVACR4 cells
[12] = Growth inhibition of human OVACR5 cells
[13] = Growth inhibition of human […] cells
[14] = system: SK-OV-3; assay: Growth inhibition of human SKOV3 cells
[15] = system: 786-0; assay: Growth inhibition of human 786-0 cells
[16] = system: SN12C; assay: Growth inhibition of human SN12C cells
[17] = system: TK-10; assay: Growth inhibition of human TK10 cells
[18] = system: ACHN; assay: Growth inhibition of human ACHN cells
[19] = system: CAKI-1; assay: Growth inhibition of human CAKI1 cells
[20] = system: UO-31; assay: Growth inhibition of human UO31 cells
[21] = system: PC-3; assay: Growth inhibition of human PC3 cells
[22] = system: DU-145; assay: Growth inhibition of human DU145 cells
[23] = system: SNB-75; assay: Growth inhibition of human SNB75 cells
[24] = system: MCF7; assay: Growth inhibition of human MCF7 cells
[25] = system: NCI/ADR-RES; assay: Growth inhibition of human NCI/ADR-RES cells
[26] = system: MDA-MB-231; assay: Growth inhibition of human MDA-MB-231 cells
[27] = system: Hs-578T; assay: Growth inhibition of human HS578T cells
[28] = system: MDA-MB-435; assay: Growth inhibition of human MDA-MB-435 cells
[29] = system: BT-549; assay: Growth inhibition of human BT549 cells
[30] = system: T47D; assay: Growth inhibition of human T47D cells
[31] = read-out: pLC50 (the source's name) (converted)

For `CC/C=C(\C)[C@H]1OC(=O)[C@H](C)N(C)C(=O)[C@H](C(C)C)NC(=O)CN(C)C(=O)[C@H]([C@H](C)CC)N(C)C(=O)[C@H](C(C)C)NC(=O)[C@@H]([C@@H](C)CC)OC(=O)/C(C)=C/C[C@H](O)[C@@H]1C` [AURILIDE B], the GI50 [1] was < 10 nM, the TGI ([1]; read-out: pTGI) was < 10 nM and the GI50 [2] was < 10 nM. The GI50 [3] was < 10 nM, the CC50 [3, 31] was < 10 nM and the TGI ([3]; read-out: pTGI) was < 10 nM. The GI50 [4] was < 10 nM, the CC50 [4, 31] was > 100000 nM and the TGI ([4]; read-out: pTGI) was < 10 nM. The GI50 [5] was < 10 nM, the CC50 [5, 31] was > 100000 nM and the TGI ([5]; read-out: pTGI) was < 10 nM. For the same compound, the GI50 [6] was 219 nM, the CC50 [6, 31] was 3020 nM and the TGI ([6]; read-out: pTGI (converted)) was 490 nM. The GI50 [7] was < 10 nM, the CC50 [7, 31] was < 10 nM and the TGI ([7]; read-out: pTGI) was < 10 nM. The GI50 [8] was < 10 nM, the TGI ([8]; read-out: pTGI) was < 10 nM and the GI50 [9] was < 10 nM. For the same compound, the CC50 [9, 31] was > 100000 nM, the TGI ([9]; read-out: pTGI) was < 10 nM and the GI50 [10] was < 10 nM. The TGI ([10]; read-out: pTGI) was < 10 nM, the GI50 [11] was < 10 nM and the CC50 [11, 31] was > 100000 nM. The TGI ([11]; read-out: pTGI) was < 10 nM, the GI50 [12] was < 10 nM and the CC50 [12, 31] was < 10 nM. The TGI ([12]; read-out: pTGI) was < 10 nM, the GI50 [13] was < 10 nM and the TGI ([13]; read-out: pTGI) was < 10 nM. For the same compound, the GI50 [14] was < 10 nM, the CC50 [14, 31] was 38900 nM and the GI50 [15] was < 10 nM. For the same compound, the CC50 [15, 31] was < 10 nM, the TGI ([15]; read-out: pTGI) was < 10 nM and the GI50 [16] was < 10 nM. The GI50 [17] was < 10 nM, the CC50 [17, 31] was < 10 nM and the TGI ([17]; read-out: pTGI) was < 10 nM. For the same compound, the GI50 [18] was < 10 nM, the CC50 [18, 31] was > 100000 nM and the GI50 [19] was < 10 nM. The TGI ([19]; read-out: pTGI) was < 10 nM, the GI50 [20] was < 10 nM and the CC50 [20, 31] was < 10 nM. The TGI ([20]; read-out: pTGI) was < 10 nM, the GI50 [21] was < 10 nM and the CC50 [21, 31] was < 10 nM. For the same compound, the TGI ([21]; read-out: pTGI) was < 10 nM, the GI50 [22] was < 10 nM and the CC50 [22, 31] was < 10 nM. The TGI ([22]; read-out: pTGI) was < 10 nM, the CC50 [23, 31] was 83200 nM and the TGI ([23]; read-out: pTGI) was < 10 nM. The GI50 [24] was < 10 nM, the CC50 [24, 31] was > 100000 nM and the TGI ([24]; read-out: pTGI (converted)) was 19100 nM. For the same compound, the GI50 [25] was < 10 nM, the CC50 [25, 31] was < 10 nM and the TGI ([25]; read-out: pTGI) was < 10 nM. The GI50 [26] was < 10 nM, the TGI ([26]; read-out: pTGI) was < 10 nM and the CC50 [27, 31] was > 100000 nM. For the same compound, the TGI ([27]; read-out: pTGI (converted)) was 708 nM, the GI50 [28] was < 10 nM and the TGI ([28]; read-out: pTGI) was < 10 nM. For the same compound, the GI50 [29] was < 10 nM, the GI50 [30] was < 10 nM and the CC50 [30, 31] was > 100000 nM.
